# Laboratory results reported in patent publication US9844521B2, “Pharmaceutical composition comprising ginger extract or shogaol” (UNIVERSITY-INDUSTRY COOPERATION GROUP OF KYUNG HEE …, priority 2008, dated 2017).
# Experiments:
# [1] = tested on: E. coli WP2 uvrA; assay: Back mutation test (genotoxicity in bacteria), E. coli strain; settings: compared with negative control
# Method: (§1) In order to evaluate genotoxicity in bacteria, a back mutation test was performed using histidine-requiring salmonella typhimurium strains (TA 100, TA 1535, TA 98, and TA 1537) and an E. coli strain (E. coli WP2 uvrA). As a result, a positive control has a substantially greater colony number than a negative control. […] Accordingly, it was confirmed that the ginger extract and shogaol all had stability in the genotoxicity test.
# [2] = tested on: rat primary mesencephalic dopaminergic cells; assay: Protection of dopamine cells against 6-OHDA neurotoxicity (TH immunohistochemistry); format: cell-based; settings: 0.01 μM, 10 μM 6-OHDA for 18 hours; 6-OHDA group 34.00±5.77% of the control
# Method: (§2) Female Sprague-Dawley rats (2-week old) were used, and shogaol was obtained from WAKO Company (Japan).
# (§3) Fetal mesencephalon tissues of Sprague-Dawley rats […] were desquamated, and mechanically dissociated by using a forcept. The tissues were treated with trypsin and the number of cells was counted, and the cells were seeded on a cover slip coated with poly-L-lysine (PLL), and then proliferated in an incubator including 5% CO2 and 95% air at a temperature of 37 °C for 5 days. A fetal bovine serum (FBS)-free media was treated with 0.01 μM or 0.1 μM of shogaol after the shogaol was diluted, or the ginger extract (the ethanol extract, the hexane fraction, the ethyl acetate fraction, the butanolfraction, and the water fraction prepared according to Example 1) after the ginger extract was diluted. […]
# (§4) Cells immobilized by using 4% PFA were washed with PBS and then, dehydrated with 1% hydrogen peroxide for 15 minutes. […] After the color-producing using DAB, a cover slip was separated and then mounted on a slide by using a gel mount and the number of cells was counted.
# (§5) Cells were color-produced by immunohistochemistry in the same manner as Experimental Example 3-1, and the number of cells was counted and the results are shown in FIGS. 8 and 9.
# [3] = tested on: rat primary mesencephalic dopaminergic cells; assay: Protection of dopamine cells against MPP+ neurotoxicity (TH immunohistochemistry); format: cell-based; settings: 0.01 μM, 10 μM MPP+ for 23 hours; MPP+ group 44.25±7.61% of a control
# Method: as §2, §3, §4, §5
# [4] = tested on: salmonella typhimurium strains (TA 100, TA 1535, TA 98, and TA 1537); assay: Back mutation test (genotoxicity in bacteria), Salmonella strains; settings: TA 100, TA 1535, TA 98, TA 1537; compared with negative control
# Method: as §1
# [5] = tested on: C57BL/6 mouse having MPTP-induced Parkinson's disease; assay: Pole test in MPTP-induced Parkinson's disease model; format: in vivo; settings: 10 mg/kg oral once per day for 5 days, MPTP 30 mg/kg i.p.
# Method: 7-week old C57BL/6 based male mice (19-22 g) were obtained and nurtured in an animal laboratory at Kyunghee University Graduate School of East-West Medicine
# Science for one week or more for adaptation. Water and feed were freely supplied, and the temperature (22±2[…]), humidity (53±3%), and a cycle of brightness and darkness (12 hours) were automatically controlled. Shogaol used was obtained from WAKO Company (Japan).
# Mice were divided into three groups, each of which consisted of 6 mice. A first group (control) and a second group (MPTP group) were orally administered once per day with 10% dimethyl sulfoxide in an amount of 5 ml per mouse weight kg for 5 days, and a third group (shogaol-administered group) was orally administered once per day with 10 mg/kg of shogaol dissolved in 10% dimethyl sulfoxide for 5 days. […]
# On a day after the last day of the 5-day administration period, a pole test was performed using a pole having a height of 50 cm and a diameter of 1 cm. A C57bl/6 mouse was placed on the pole with its head upward, and a time during which the mouse turns a summit of the pole at an angle of 180° and moves downward until its four feet touch the ground was measured. […]
# [6] = tested on: C57BL/6 mouse having MPTP-induced Parkinson's disease; assay: Dopamine cell protective activity in striatum and substantia nigra (TH immunohistochemistry), MPTP model; format: in vivo; settings: 10 mg/kg oral once per day for 5 days, MPTP 30 mg/kg i.p., p<0.05 vs MPTP group
# Method: Mice were divided into three groups, each of which consisted of 6 mice. A first group (control) and a second group (MPTP group) were orally administered once per day with 10% dimethyl sulfoxide in an amount of 5 ml per mouse weight kg for 5 days, and a third group (shogaol-administered group) was orally administered once per day with 10 mg/kg of shogaol dissolved in 10% dimethyl sulfoxide for 5 days. 2 hours after the oral administration, the first group (control) was intraperitoneally administered with saline in an amount of 5 ml per mouse weight kg for 5 days, and the second and third groups were intraperitoneally administered with 30 mg/kg of MPTP dissolved in saline for 5 days.
# The mice of the respective groups were sacrificed after the pole test was completely performed, and brain tissues (striatum and substantia nigra) were isolated. […]
# The mice of the respective groups were sacrificed after the pole test was completely performed, and brain tissues (striatum and substantia nigra) were isolated. Protection activity was evaluated using the isolated brain tissues in the same manner as in (1-2) above, and the results are shown in FIGS. 14 and 15. […]
compound,measurement,setting,value
"CCCCC/C=C/C(=O)CCc1ccc(O)c(OC)c1 [shogaol, (E)-1-(4-hydroxy-3-methoxyphenyl)dec-4-en-3-one]",colony number (back mutation),[1],the colony number was not increased
same,number of dopamine positive cells,[2],57.25±5.65%
same,number of dopamine positive cells,[3],91.50±3.38%
same,colony number (back mutation),[4],the colony number was not increased
same,"T-la (% of control), pole test",[5],99.1 ± 8.11%
same,number of TH positive cells in substantia nigra,[6]; of a control,70.30±4.86
same,optical density of striatum (TH immunoreactivity),[6],80.11±1.97 % of a control
